{"source": "EPA's ToxValDB 9.5 (doi:10.2903/j.efsa.2005.46r)", "key": {"Apis mellifera": {"test_system": "Apis mellifera", "conditions": "acute, mortality"}, "Daphnia magna": {"test_system": "Daphnia magna", "conditions": "chronic/long-term; duration: 21 days; reproduction"}, "Chrysoperla externa": {"test_system": "Chrysoperla externa", "conditions": "not reported; mortality"}, "Bibionidae": {"test_system": "Bibionidae", "conditions": "chronic/long-term; duration: 28 days; development"}, "Typhlodromus pyri": {"test_system": "Typhlodromus pyri", "conditions": "not reported; mortality"}, "Mus musculus": {"test_system": "Mus musculus", "conditions": "chronic; duration: 18 months; M; body weight"}, "Oncorhynchus mykiss": {"test_system": "Oncorhynchus mykiss", "conditions": "for NOEC: chronic/long-term"}, "Colinus virginianus": {"test_system": "Colinus virginianus", "conditions": "acute; oral; mortality"}, "Tagia sp.": {"test_system": "Tagia sp.", "conditions": "acute; duration: 14 days; mortality"}, "Pimephales promelas": {"test_system": "Pimephales promelas", "conditions": "chronic/long-term; duration: 36 days; time to hatch"}}, "data": [{"smiles": "CNC(=O)/C(=N/OC)c1ccccc1COc1cc(C)ccc1C", "note": "[Dimoxystrobin]", "values": [{"measurement": "LD50", "setting": "Apis mellifera; dermal", "result": "> 100", "unit": "µg/piece"}, {"measurement": "LD50", "setting": "Apis mellifera; duration: 48 hours, oral, unspecified", "result": "> 79.4", "unit": "µg/piece"}, {"measurement": "NOEC", "setting": "Daphnia magna", "result": 0.0125, "unit": "mg/L"}, {"measurement": "LEL", "setting": "Chrysoperla externa", "result": 200, "unit": "g/ha"}, {"measurement": "NOEC", "setting": "Bibionidae", "result": 0.01, "unit": "mg/L"}, {"measurement": "LEL", "setting": "Typhlodromus pyri", "result": 200, "unit": "g/ha"}, {"measurement": "NOEC", "setting": "Anas platyrhynchos; reproductive", "result": 36, "unit": "mg/kg-day"}, {"measurement": "LC50", "setting": "Anas platyrhynchos; short-term, oral, feed, mortality", "result": "> 232", "unit": "mg/kg-day"}, {"measurement": "NOAEL", "setting": "Mus musculus", "result": 4, "unit": "mg/kg-day"}, {"measurement": "LC50", "setting": "Rattus norvegicus; acute, oral, diet, mortality", "result": 5, "unit": "mg/kg-day"}, {"measurement": "NOAEL", "setting": "Rattus norvegicus; short-term, duration: 7 days, clinical chemistry", "result": 4, "unit": "mg/kg-day"}, {"measurement": "LC50", "setting": "Oncorhynchus mykiss; acute, duration: 96 hours, mortality", "result": 0.0434, "unit": "µg/mL"}, {"measurement": "NOEC", "setting": "Oncorhynchus mykiss; duration: 28 days, mortality", "result": 0.01, "unit": "mg/L"}, {"measurement": "NOEC", "setting": "Oncorhynchus mykiss; duration: 97 days, behavior", "result": 0.000316, "unit": "mg/L"}, {"measurement": "LD50", "setting": "Colinus virginianus", "result": "> 2000", "unit": "mg/kg"}, {"measurement": "LC50", "setting": "Tagia sp.", "result": 47.3, "unit": "mg/kg"}, {"measurement": "NOEC", "setting": "Pimephales promelas", "result": 0.016, "unit": "mg/L"}]}]}
